Here are results for 1 substance from EP4810509A1, “INSECT NEUROPEPTIDES 7” (Solasta Bio Limited, priority 2022, dated 2024).

Type in all cases: in vivo
One series has as its system Myzus persicae aphids. The experiment in a line: Leaf dip assay (based on IRAC susceptibility test method 019), mortality assessment. To be noted: unformulated, mortality assessed at 72, 96 and 120 hours, compared to negative control vehicle and Spirotetramat (Figures 6-8). The method, then:
The assay was carried out based on IRAC susceptibility test method 019 (https://irac-online.org/methods/aphids-adultnymphs/).
Fill a small 4 cm wide 3 cm high dish with a 1% agar treatment solution of the active chemical or control (ensuring 1 cm gap between the agar and the lid) and leave to set. Dip a 2.5 cm leaf disc into 3 ml of treatment solution allowing the treatment to coat the leaf. Leave the disc to dry for 1 hour and place onto the set agar. Place insects (Myzus persicae aphids) onto each of the leaf discs. Each unit is sealed with a close-fitting, ventilated lid. Place the agar dishes in a small plastic tray lined with moist tissue paper and ensure the water trays in the bottom of the incubator are filled with clean water and place within the incubator. An assessment of mortality is made at 72, 96 and 120 hours. Leaf dip assays were performed with SB-P-66, and compared to a negative control vehicle and a current commercial insecticide Spirotetramat. The activity of SB-P-66 is shown in Figures 6 and 7; SB-P-66 has good activity whilst being eco-friendly and targeted to specific pests unlike broad spectrum chemical insecticides such as Spirotetramat.

For another series, the system named is Bumblebee. The experiment in a line: Bee oral toxicity test (adapted from OECD Test No. 247: Bumblebee, Acute Oral Toxicity Test). Conditions: % survival after 96 hours of application, compared with sucrose or vehicle and with Imidacloprid (Figure 9). Here is the method:
Bee oral testing protocol was carried out adapted from OECD Test No. 247: Bumblebee, Acute Oral Toxicity Test. The toxicity of SB-P-66 was compared with a negative control of sucrose or vehicle, and with a current commercial insecticide Imidacloprid.

A further series concerns Aphis fabae. The experiment in a line: Field trials, naturally infested plants (PGRO, vining peas). Conditions: unformulated, acting comparably to commercial insecticides (Figures 10, 13). The method, then: (§1) A) and 16 days after second application (App.
(§2) Field trials for peptide SB-P-66, unformulated, against various insects were conducted by third-party organisations PGRO and AgriScience.

The subject of a further series is Aphis gossypii. The experiment in a line: Field trials, naturally infested plants (AgriScience, cotton and melon). To be noted: unformulated, acting comparably to commercial insecticides (Figures 11, 12). Here is the method: as §1, §2
In series [1] the test system is Amrasca biguttula (leaf hopper). As to the kind of experiment: Field trials, naturally infested plants. To be noted: unformulated; over time; acting comparably to commercial insecticides (Figure 14). The method, then:
as §1, §2

In a further series the test system is Myzus persicae. The experiment in a line: Field trials. Conditions: unformulated; acting comparably to commercial insecticides. The method, then:
as §2

On to “H-PAFSSWG-NH2 [SB-P-66, [Hy]-PAFSSWG-[NH2]]”, for which the “activity against Myzus persicae (mortality)” value with Myzus persicae aphids is on record as “good activity”. Also, the “bee oral toxicity (% survival)” value with Bumblebee is “far lower toxicity”. Also, the “efficacy in field trials against Aphis fabae” value with Aphis fabae is “good efficacy”. In addition, in the series with Aphis gossypii, the “efficacy in field trials against Aphis gossypii” value was “good efficacy”. Besides, the “efficacy in field trials against Amrasca biguttula” value in series [1] is “good efficacy”. Besides, the “efficacy in field trials against Myzus persicae” value in the series with Myzus persicae was “good efficacy”.
